Results taken from patent US6384061B1, “Hydantoin compounds and methods related thereto” (LG Chemical Ltd., priority 2000, dated 2002).

Legend:
[1] = molecular target: T1, Ras farnesyl transferase (Homo sapiens, UniProt P49354+P49356); test: Ras farnesyl transferase inhibiting activity (filter-binding, tritium-farnesylpyrophosphate, Ras-CVLS substrate); assay type: biochemical; details: recombinant Ras farnesyl transferase, 30 minutes at 37° C., read-out: Ftase IC50
T1 construct: made in house
Protocol: The enzyme reaction was performed in 50 μl of 50 mM Sodium HEPES buffer solution containing 25 mmol of potassium chloride. 25 mmol of magnesium chloride, 10 mmol of DTT and 50 μmol of zinc chloride. 1.5 μmol of Ras substrate protein, 0.15 μmol of tritium-farnesylpyrophosphate and 4.5 nmol of farnesyl transferase were used.
More specifically, in the initial step, farnesyl transferase was added to the above buffer solution, reaction was maintained for 30 minutes at 37° C. and then the reaction was stopped by adding 1 ml of ethanol solution containing 1M HCl. The formed precipitates were adsorbed to GF/B filter using Hopper harvestor(Hopper #225V) for filter-binding, washed with ethanol, and then radioactivity of the dried filter was measured using LKB β counter. Enzyme titer was measured in the unsaturated state of substrate where the concentrations of Ras substrate protein and farnesyl transferase have quantitative relationship. Enzyme inhibiting activity was measured using less than 5% of total reaction solution of the compound according to the present invention dissolved in dimethylsulfoxide(DMSO) solution as a reagent. Enzyme inhibiting activity was represented by percentage of the amount of the farnesyl incorporated with the reagent to that without the reagent.

[2] = tested on: intracellular Ras farnesyl transferase, Rat2 cell line; test: Intracellular Ras farnesyl transferase inhibiting activity in transformed Rat2 cells (35S-methionine labelling, Y13-259 immunoprecipitation, SDS-PAGE); assay type: cell-based; details: Rattus norvegicus; transformed Rat2 fibroblast cell line; concentration inhibiting 50% of farnesyl binding of Ras protein; read-out: Ftase CIC50
Protocol: In the present experiment, Rat2 cell line which expresses C-Harvey-Ras protein having transforming activity and Rat2 cell line(Korean patent application No. 97-14409) which is transformed with fused protein of H-Ras substituted with polybasic lysine domain at C-terminus of K-Ras were used. The experiment was performed by the modified Declue's method(Declue. J. E. et al., Cancer Research, 1991. 51, 712). Hereinafter, the experimental method will be described in more detail.
3×10^5 cells of transformed Rat2 fibroblast cell line were sprayed on 60 mm cell cultivation dish and cultivated for 48 hours in a cell incubator at 37° C. and after 50% or more of density was reached, it was treated with a reagent. The compound according to the present invention dissolved in dimethylsulfoxide(DMSO) was used as the reagent. 1% of dimethylsulfoxide was used in both control and experimental groups. After 4 hours from the treatment of the reagent, methionine labeled with 150 μCi of radioactive isotope, ^35S per 1 ml of medium, was added and after cultivating for 20 hours, the cells were washed with physiological saline water. The cells were lysed using 1 ml of cool cell lysis buffer solution(50 mM of Sodium Herpiss buffer solution containing 5 mmol of magnesium chloride. 1 mmol of DTT, 1% NP 40, 1 mmol of EDTA, 1 mmol of PMSF, 2 μmol of leupeptin, 2 μmol of pepstatin A and 2 μmol of antipain) and the supernatant was obtained by high-velocity centrifugation of 12,000 g×5 minutes. The amount of the labeled radioisotope of the supernatent was measured and standardized to obtain a quantitative result in immunoprecipitation reaction and then. Y13-259, monoclonal antiboby specifically binding to Ras protein(Furth, M. E. et al., J. Virol, 1982, 43, 294) was added and reacted for 15 hours at 4° C. Protein A bound to goat anti-murine Immunoglobulin antibody-agarose suspension was added to the solution and reacted for 1 hour at 4° C. and then, to remove unspecific binding product, immunoprecipitates were washed with buffer solution(50 mM Tris chloride buffer solution containing 50 mmol of sodium chloride, 0.5% of sodium dioxycolate, 0.5% of NP 40 and 0.1% of SDS). The precipitates were boiled in reagent buffer solution for electrophoresis and then, electrophoresis was performed using 13.5% of SDS polyacrylamide gel. After electrophoresis, the gel was fixed and dried. Then, the gel was exposed to X-ray film, developed and printed. From the result of the experiment, intensities of band of protein with and without farnesyl of Ras protein were measured, and the concentration of reagent inhibiting 50% of farnesyl binding was defined as CIC50, an intracellular Ras farnesyl transferase inhibiting activity.

[3] = molecular target: T2, Geranylgeranyl transferase (Bos taurus, UniProt P29702+Q5EAD5); test: Geranylgeranyl transferase inhibiting activity (geranylgeranyl pyrophosphate, Ras-CVIL substrate); assay type: biochemical; details: geranylgeranyl transferase purified from bovine brain, read-out: GGtase IC50
T2 construct: Geranylgeranyl transferase was purified from bovine brain; from tissue; host or cells: bovine brain
Protocol: To evaluate the selective enzyme inhibiting activity of the compound according to the present invention, inhibiting activity on geranylgeranyl transferase was measured. Geranylgeranyl transferase was purified from bovine brain with the method modified from Schber's method(Schber et al., J. Biol. Chem. 1990, 265, 14701). and substantially the same experiment as that of farnesyl transferase was performed using geranylgeranyl pyrophosphate and Ras-CVIL substrate protein under the similar condition to farnesyl transferase reaction.

Compound	IC50 [1] [µM]	IC50 [3] [µM]	IC50 [2] [µM]
CC1(c2cccc3ccccc23)C(=O)N(CCCn2ccnc2)C(=O)N1Cc1ccc(C(=O)N2CCN(C(=O)OCc3ccccc3)CC2)cc1 (stereo not drawn) [Compound 43, 4-{4-[3-(3-imidazol-1-yl-propyl)-5-methyl-5-naphthalen-1-yl-2,4-dioxo-imidazolidin-1-ylmethyl]-benzoyl}-piperazine-1-carboxylic acid benzyl ester]	5	> 10	< 20
CSCCC(NC(=O)CN1C(=O)N(Cc2cncn2Cc2ccc(C#N)cc2)C(=O)C1(C)c1cccc2ccccc12)C(=O)O (stereo not drawn) [Compound 8, 2-(2-{3-[3-(4-cyano-benzyl)-imidazol-4-yl-methyl]-5-methyl-5-naphthalen-1-yl-2,4-dioxo-imidazolidin-1-yl}-acetylamino)-4-methylsulfanyl-butyric acid]	0.014	> 10	< 20
CC1(c2cccc3ccccc23)C(=O)N(CCCn2ccnc2)C(=O)N1Cc1cccc(CNS(C)(=O)=O)c1 (stereo not drawn) [Compound 36, N-{3-[3-(3-imidazol-1-yl-propyl)-5-methyl-5-naphthalen-1-yl-2,4-dioxo-imidazolidin-1-ylmethyl]-benzyl}-methanesulfonamide]	1.2	> 10	< 20
CSCCC(NC(=O)CN1C(=O)N(CCCc2cncn2Cc2ccc(C#N)cc2)C(=O)C1(C)c1cccc2ccccc12)C(=O)O (stereo not drawn) [Compound 58, 2-[2-(3-{3-[3-(4-cyanobenzyl)-3H-imidazol-4-yl]-propyl}-5-methyl-5-naphthalen-1-yl-2,4-dioxo-imidazolidin-1-yl)-acetylamino]-4-methylsulfanyl-butyric acid]	0.014	> 10	< 20
CSCCC1SCCN1C(=O)CN1C(=O)N(CCCc2cnc[nH]2)C(=O)C1(C)c1cccc2ccccc12 (stereo not drawn) [Compound 12, 3-[3-(3H-imidazol-4-yl)-propyl]-5-methyl-1-{2-[2-(2-methylsulfanyl-ethyl)-thiazolidin-3-yl]-2-oxo-ethyl}-5-naphthalen-1-yl-imidazolidin-2,4-dione]	5.5	> 10	< 20
CC1(c2cccc3ccccc23)C(=O)N(CCCc2cnc[nH]2)C(=O)N1CC(=O)N1CCSC1 (stereo not drawn) [Compound 10, 3-[3-(3H-imidazol-4-yl)-propyl]-5-methyl-5-naphthalen-1-yl-1-(2-oxo-2-thiazolidin-3-yl-ethyl)-imidazolidin-2,4-dione]	> 50	> 10	< 20
CCCCN1C(=O)N(CCCc2cncn2Cc2ccc(C#N)cc2)C(=O)C1(C)c1cccc2ccccc12 (stereo not drawn) [Compound 49, 4-{5-[3-(3-butyl-4-methyl-4-naphthalen-1-yl-2,5-dioxo-imidazolidin-1-yl)-propyl]-imidazol-1-ylmethyl}benzonitrile]	0.055	> 10	< 20
CC1(c2cccc3ccccc23)C(=O)N(CCCn2ccnc2)C(=O)N1Cc1cccc(OC(F)(F)F)c1 (stereo not drawn) [Compound 23, 1-(3-trifluoromethoxy-benzyl)-3-(3-imidazol-1-yl-propyl)-5-methyl-5-naphthalen-1-yl-imidazolidin-2,4-dione]	3	> 10	< 20
CSc1ccc(CN2C(=O)N(CCCn3ccnc3)C(=O)C2(C)c2cccc3ccccc23)cc1C#N (stereo not drawn) [Compound 29, 5-[3-(3-imidazol-1-yl-propyl)-5-methyl-5-naphthalen-1-yl-2,4-dioxo-imidazolidin-1-ylmethyl]-2-methylsulfanyl-benzonitrile]	0.08	> 10	< 20

Second part, led by results:

IC50 [1] [µM]	IC50 [3] [µM]	Compound	IC50 [2] [µM]
0.03	> 10	N#Cc1ccc(Cn2cncc2CN2C(=O)CN(Cc3cccc4ccccc34)C2=O)cc1 [Compound 75, 4-[5-(3-naphthalen-1-ylmethyl-2,5-dioxo-imidazolidin-1-ylmethyl)-imidazol-1-ylmethyl]-benzonitrile]	> 50
0.11	> 10	N#Cc1ccc(Cn2cncc2CN2C(=O)[C@H](CC(=O)N3CCOCC3)N(Cc3cccc4ccccc34)C2=O)cc1 [Compound 81, 4-{(5S)-[4-(2-morpholin-4-yl-2-oxo-ethyl)-3-naphthalen-1-ylmethyl-2,5-dioxo-imidazolidin-1-ylmethyl]-imidazol-1-ylmethyl}-benzonitrile]	< 20
0.16	> 10	CCN1C(=O)N(Cc2cncn2Cc2ccc(C#N)cc2)C(=O)C1(C)c1cccc2ccccc12 (stereo not drawn) [Compound 61, 4-[5-(3-ethyl-4-methyl-4-naphthalen-1-yl-2,5-dioxo-imidazolidin-1-ylmethyl)-imidazol-1-ylmethyl]-benzonitrile]	< 20
5	> 10	O=C1CN(c2cccc3ccccc23)C(=O)N1CCCn1ccnc1 [Compound 87, 3-(3-imidazol-1-yl-propyl)-1-naphthalen-1-yl-imidazolidin-2,4-dione]	> 50
1.5	> 10	COCCN(C)C(=O)CC1C(=O)N(Cc2cncn2Cc2ccc(Br)cc2)C(=O)N1Cc1cccc2ccccc12 (stereo not drawn) [Compound 83, 2-{1-[3-(4-bromo-benzyl)-3H-imidazol-4-ylmethyl]-3-naphthalen-1-ylmethyl-2,5dioxo-imidazolidin-4-yl}-N-(2-methoxy-ethyl)-N-methyl-acetamide]	> 50
0.44	> 10	CC1(c2cccc3ccccc23)NC(=O)N(Cc2cncn2Cc2ccc(C#N)cc2)C1=O (stereo not drawn) [Compound 59, 4-[5-(4-methyl-4-naphthalen-1-yl-2,5-dioxo-imidazolidin-1-ylmethyl)-imidazol-1-ylmethyl]-benzonitrile]	< 20
3.6	> 10	CC1(c2cccc3ccccc23)C(=O)N(CCCn2ccnc2)C(=O)N1CC(=O)NC1(C#N)CCOCC1 (stereo not drawn) [Compound 67, N-(4-cyano-tetrahydropyran-4-yl)-2-[3-(3-imidazol-1yl-propyl)-5-methyl-5-naphthalen-1-yl-2,4-dioxo-imidazolidin-1-yl]-acetamide]	< 20
5	> 10	CC1(c2cccc3ccccc23)NC(=O)N(CCCc2cncn2Cc2ccc(Br)cc2)C1=O (stereo not drawn) [Compound 68, 3-{3-[3-(4-bromo-benzyl)-3H-imidazol-4-yl]-propyl}-5-methyl-5-naphthalen-1-yl-imidazolidin-2,4-dione]	< 20
0.05	> 10	CCOC(=O)CC1C(=O)N(Cc2cncn2Cc2ccc(C#N)cc2)C(=O)N1Cc1cccc2ccccc12 (stereo not drawn) [Compound 77, {1-[3-(4-cyano-benzyl)-3H-imidazol-4-ylmethyl]-3-naphthalen-1-ylmethyl-2,5-dioxo-imidazolidin-4-yl}-acetic acid ethyl ester]	< 10
0.05	> 10	CCOC(=O)CN1C(=O)N(Cc2cncn2Cc2ccc(C#N)cc2)C(=O)C1(C)c1cccc2ccccc12 (stereo not drawn) [Compound 62, {3-[3-(4-cyano-benzyl)-3H-imidazol-4-ylmethyl]-5-methyl-5-naphthalen-1-yl-2,4-dioxo-imidazolidin-1-yl)-acetic acid ethyl ester]	< 20
